Assay results reported in PMC7770833, “Design, Synthesis, and Biological Evaluation of a Series of Oxazolone Carboxamides as a Novel Class of Acid Ceramidase Inhibitors” (Journal of Medicinal Chemistry, 2020).

Key:
hAC = target: T1, hAC (Homo sapiens, UniProt Q13510); experiment: hAC LC/MS-based activity assay in SH-SY5Y cells; format: cell-based; parameters: host or cells: SH-SY5Y human neuroblastoma cells; conditions: 1, 2.5, 5, 10 μM for 3 h; 10 μM for 1, 3, 6 h
T1 sequence (Q13510 22-395): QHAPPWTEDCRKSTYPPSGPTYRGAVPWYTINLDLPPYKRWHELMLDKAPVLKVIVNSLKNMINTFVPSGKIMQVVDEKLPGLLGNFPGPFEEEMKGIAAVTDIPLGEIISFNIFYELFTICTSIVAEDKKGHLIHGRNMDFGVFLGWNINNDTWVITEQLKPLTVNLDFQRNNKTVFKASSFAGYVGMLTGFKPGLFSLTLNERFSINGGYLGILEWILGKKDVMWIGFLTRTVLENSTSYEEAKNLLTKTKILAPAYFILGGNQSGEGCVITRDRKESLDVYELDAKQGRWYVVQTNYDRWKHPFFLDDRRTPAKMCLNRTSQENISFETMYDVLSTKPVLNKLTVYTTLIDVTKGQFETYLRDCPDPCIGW
Procedure: SH-SY5Y cells were purchased from Sigma Aldrich (Italy) and cultured in DMEM containing 10% FBS at 37 °C and 5% CO2. Drugs were dissolved in DMSO (10 mM) and diluted in cell culture medium with reduced serum (1%) for cell treatments.
hAC activity measurement was performed as previously described.[59],[61] Total lysates from cells were diluted in assay buffer (100 mM sodium phosphate, 0.1% Nonidet P-40, 150 mM NaCl, 3 mM DTT, 100 mM sodium citrate, pH 4.5). Reactions were started by the addition of 50 μM N-lauroyl ceramide (Nu-Chek Prep, Elysian, MN) and carried out for 1 h at 37 °C. Reactions were stopped by the addition of a mixture of CHCl3/MeOH (2:1) spike with 11-lauroleic acid (1.0 nmol, NuChek Prep). The organic phases were collected, dried under N2, and analyzed by UPLC/MS (Acquity, Waters) in the negative-ion mode monitoring the reaction product (lauric acid, m/z: 199) using 11-lauroleic acid as the internal standard. Lipids were eluted on an Acquity UPLC BEH C18 column (50 mm length, 2.1 mm ID, 1.7 μm pore size, Waters) column at 0.5 mL/min for 1.5 min with a gradient of CH3CN and H2O, both containing 0.25% AcOH and 5 mM NH4OAc (70–100% CH3CN in 0.5 min, 100% CH3CN for 0.5 min, 70% CH3CN for 0.4 min). The column temperature was 40 °C. […] The [M – H]^− ion was monitored in the selected-ion monitoring mode (m/z values: lauric acid 199, 11-lauroleic acid 197.35). […]

[1] = In vivo PK study in C57BL/6 mice; parameters: species or system mouse
Procedure: C57 B6/J male mice, 8 weeks old (22–24 g), were used (Charles River, Calco). All procedures were performed in accordance with the Ethical Guidelines of European Communities Council (Directive 2010/63/EU of 22 September 2010) and accepted by the Italian Ministry of Health. All efforts were made to minimize animal suffering and to use the minimal number of animals required to produce reliable results, according to the “3Rs rules”. Animals were group-housed in ventilated cages and had free access to food and water. They were maintained under a 12 h light/dark cycle (lights on at 8:00 am) at a controlled temperature (21 ± 1 °C) and relative humidity (55 ± 10%). 32b was administrated intravenously (i.v.) at 3 mg/kg/5 mL, vehicle: PEG400/Tween 80/saline solution (10/10/80% in volume, respectively) via tail vein injection and via oral administration (p.o.) at 10 mg/kg/10 mL, vehicle: PEG400/Tween 80/saline solution (10/10/80% in volume, respectively) by an oral gavage. Sample collection. Samples were collected at 5 min, 15 min, 30 min, 1 h, 2 h, and 4 h (i.v. administration) and at 15 min, 30 min, 1 h, 2 h, 4 h, and 6 h (p.o. administration). N = 3 animals per dose time point were treated. Plasma samples were centrifuged at 21,100g for 15 min at 4 °C. An aliquot of each sample was extracted (1:3) with cold CH3CN containing 200 nM of an appropriate internal standard being a close analogue of compound 32b. A calibration curve was prepared in blank mouse plasma over a 1 nM–10 μM range. Three quality controls were prepared by spiking compound 32b in the blank mouse plasma to 20, 200, and 2000 nM as final concentrations. The calibrators and quality controls were extracted (1:3) with the same extraction solution as the plasma samples. The plasma samples, the calibrators, and quality controls were centrifuged at 3270 × g for 15 min at 4 °C. The supernatants were further diluted (1:1) with H2O and analyzed by LC/MS–MS on a Waters Acquity UPLC/MS TQD system consisting of TQD) MS equipped with an ESI interface and a PDA detector. ESI was applied in positive mode. Compound-dependent parameters such as MRM transitions and collision energy were developed for compound 32b and the internal standard. The analyses were run on an Acquity UPLC BEH C18 (50 × 2.1 mm ID, particle size 1.7 μm) with a VanGuard BEH C18 pre-column (5 × 2.1 mm ID, particle size 1.7 μm) at 40 °C. For plasma samples, the mobile phase was H2O + 0.1% HCOOH (A) and CH3CN + 0.1% HCOOH (B) at a flow rate = 0.5 mL/min. A linear gradient was applied starting at 20% B with an initial hold for 0.2 min, then 20–100% B in 2 min. All samples (plasma samples, calibrators, and quality controls) were quantified by a MRM peak area response factor in order to determine the levels of compound 32b in the plasma. The concentrations versus time were plotted and the profiles were fitted using PK Solutions Excel Application (Summit Research Service, USA) in order to determine the PK parameters.

- hAC activity in SH-SY5Y cells (hAC): time-dependent reduction
- Vdss (mL/kg) ([1]; 10 mg/kg, p.o.): 32 877 mL/kg
- AUC at 4 h ([1]; male, mouse, iv, 3 mg/kg, plasma): 533 ng·h/mL
- clearance at 4 h ([1]; male, mouse, plasma, iv, 3 mg/kg): 72 mL/min/kg
- Vd at 4 h ([1]; male, mouse, plasma, iv, 3 mg/kg, i.v., read-out: Vdss (converted)): 12.4 L/kg
- AUC at 4 h ([1]; male, mouse, po, 10 mg/kg, plasma): 709 ng·h/mL
Compound: CCCCCNC(=O)n1cc(-c2ccc(F)cc2C2CCN(C)CC2)oc1=O [Compound 32b, 5-[4-Fluoro-2-(1-methyl-4-piperidyl)phenyl]-2-oxo-N-pentyl-oxazole-3-carboxamide]
